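96-well plates; 48 h exposure; 5 concentrations. Endpoints by linear interpolation between flanking doses. Not reached: highest tested concentration assigned. TGI is the concentration that stops growth completely.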
Experiments:
Assay in all cases: NCI anticancer screen, dose series, 48 h
HOP-18 NSCLC = test system: HOP-18 NSCLC
XF 498 CNS = test system: XF 498 CNS
COLO 205 colon = test system: COLO 205 colon
U251 CNS = test system: U251 CNS
HOP-92 NSCLC = test system: HOP-92 NSCLC
TK-10 renal = test system: TK-10 renal
HL-60(TB) leukemia = test system: HL-60(TB) leukemia
KM12 colon = test system: KM12 colon
CAKI-1 renal = test system: CAKI-1 renal
OVCAR-3 ovarian = test system: OVCAR-3 ovarian
CCRF-CEM leukemia = test system: CCRF-CEM leukemia
M19-MEL melanoma = test system: M19-MEL melanoma
EKVX NSCLC = test system: EKVX NSCLC
K-562 leukemia = test system: K-562 leukemia
UACC-62 melanoma = test system: UACC-62 melanoma
MOLT-4 leukemia = test system: MOLT-4 leukemia
NCI-H522 lung = test system: NCI-H522 lung
LOX IMVI melanoma = test system: LOX IMVI melanoma
SF-268 CNS = test system: SF-268 CNS
MALME-3M melanoma = test system: MALME-3M melanoma
SK-MEL-2 melanoma = test system: SK-MEL-2 melanoma
RXF-631 renal = test system: RXF-631 renal
A498 renal = test system: A498 renal
SW-620 colon = test system: SW-620 colon
NCI-H23 lung = test system: NCI-H23 lung
SR leukemia = test system: SR leukemia
DMS 114 small cell lung = test system: DMS 114 small cell lung
SNB-78 CNS = test system: SNB-78 CNS
786-0 renal = test system: 786-0 renal
SNB-75 CNS = test system: SNB-75 CNS
NCI-H460 lung = test system: NCI-H460 lung
SK-OV-3 ovarian = test system: SK-OV-3 ovarian
M14 melanoma = test system: M14 melanoma
HOP-62 NSCLC = test system: HOP-62 NSCLC
A549 NSCLC = test system: A549 NSCLC
HCT-116 colon = test system: HCT-116 colon
SN12C renal = test system: SN12C renal
OVCAR-8 ovarian = test system: OVCAR-8 ovarian
RPMI-8226 leukemia = test system: RPMI-8226 leukemia
OVCAR-5 ovarian = test system: OVCAR-5 ovarian
KM20L2 colon = test system: KM20L2 colon
NCI-H226 lung = test system: NCI-H226 lung
SF-539 CNS = test system: SF-539 CNS
SNB-19 CNS = test system: SNB-19 CNS
HCT-15 colon = test system: HCT-15 colon
OVCAR-4 ovarian = test system: OVCAR-4 ovarian
LXFL 529 NSCLC = test system: LXFL 529 NSCLC
DLD-1 colon = test system: DLD-1 colon
SF-295 CNS = test system: SF-295 CNS
RXF 393 renal = test system: RXF 393 renal
HT29 colon = test system: HT29 colon
UO-31 renal = test system: UO-31 renal
DMS 273 small cell lung = test system: DMS 273 small cell lung
SK-MEL-5 melanoma = test system: SK-MEL-5 melanoma
UACC-257 melanoma = test system: UACC-257 melanoma
IGROV1 ovarian = test system: IGROV1 ovarian
ACHN renal = test system: ACHN renal
SK-MEL-28 melanoma = test system: SK-MEL-28 melanoma
HCC-2998 colon = test system: HCC-2998 colon

COc1ccc(C(c2ccc(C(C)C)cc(OC)c2=O)c2ccc(C(C)C)cc(OC)c2=O)cc1
TGI (HOP-18 NSCLC): 40.1 µM | TGI (XF 498 CNS): 34.7 µM | TGI (COLO 205 colon): 31.1 µM | TGI (U251 CNS): 26.6 µM | TGI (HOP-92 NSCLC): 27.1 µM | TGI (TK-10 renal): 34.2 µM | TGI (HL-60(TB) leukemia): 41.9 µM | TGI (KM12 colon): 26.4 µM | TGI (CAKI-1 renal): 33.3 µM | TGI (OVCAR-3 ovarian): 26 µM | TGI (CCRF-CEM leukemia): 38.5 µM | TGI (M19-MEL melanoma): 27.1 µM | TGI (EKVX NSCLC): 26.6 µM | TGI (K-562 leukemia): 35.9 µM | TGI (UACC-62 melanoma): 28.1 µM | TGI (MOLT-4 leukemia): 31.3 µM | TGI (NCI-H522 lung): 27.8 µM | TGI (LOX IMVI melanoma): 31 µM | TGI (SF-268 CNS): 26.5 µM | TGI (MALME-3M melanoma): 30.6 µM | TGI (SK-MEL-2 melanoma): 29.3 µM | TGI (RXF-631 renal): 34.8 µM | TGI (A498 renal): 31.7 µM | TGI (SW-620 colon): 28.8 µM | TGI (NCI-H23 lung): 30.8 µM | TGI (SR leukemia): 38.2 µM | TGI (DMS 114 small cell lung): 24.7 µM | TGI (SNB-78 CNS): 27.3 µM | TGI (786-0 renal): 30.5 µM | TGI (SNB-75 CNS): 34 µM | TGI (NCI-H460 lung): 30 µM | TGI (SK-OV-3 ovarian): 32.3 µM | TGI (M14 melanoma): 28 µM | TGI (HOP-62 NSCLC): 35.5 µM | TGI (A549 NSCLC): 24.6 µM | TGI (HCT-116 colon): 23.1 µM | TGI (SN12C renal): 30.3 µM | TGI (OVCAR-8 ovarian): 32.5 µM | TGI (RPMI-8226 leukemia): 25.6 µM | TGI (OVCAR-5 ovarian): 34.3 µM | TGI (KM20L2 colon): 27 µM | TGI (NCI-H226 lung): 32.3 µM | TGI (SF-539 CNS): 30.9 µM | TGI (SNB-19 CNS): 29.3 µM | TGI (HCT-15 colon): 25.3 µM | TGI (OVCAR-4 ovarian): 24.9 µM | TGI (LXFL 529 NSCLC): 28.1 µM | TGI (DLD-1 colon): 19.6 µM | TGI (SF-295 CNS): 29.7 µM | TGI (RXF 393 renal): 15 µM | TGI (HT29 colon): 22.7 µM | TGI (UO-31 renal): 27.3 µM | TGI (DMS 273 small cell lung): 28 µM | TGI (SK-MEL-5 melanoma): 27.4 µM | TGI (UACC-257 melanoma): 29 µM

CC(C)=CCCC(C)[C@H]1CC(O)C2(C)C3=CCC4C(C)(C)[C@@H](O)CC[C@]4(C)C3=CC[C@]12C (stereo not given in full)
TGI (HOP-18 NSCLC): 31.6 µM | TGI (XF 498 CNS): 25.1 µM | TGI (COLO 205 colon): 20.7 µM | TGI (U251 CNS): 6.54 µM | TGI (HOP-92 NSCLC): 9.53 µM | TGI (TK-10 renal): 50.1 µM | TGI (HL-60(TB) leukemia): 35 µM | TGI (IGROV1 ovarian): 48.7 µM | TGI (KM12 colon): > 100 µM | TGI (CAKI-1 renal): 24.4 µM | TGI (OVCAR-3 ovarian): 13.1 µM | TGI (CCRF-CEM leukemia): 25.8 µM | TGI (M19-MEL melanoma): 13.8 µM | TGI (EKVX NSCLC): > 100 µM | TGI (K-562 leukemia): 26.6 µM | TGI (UACC-62 melanoma): 15.1 µM | TGI (MOLT-4 leukemia): 42.4 µM | TGI (NCI-H522 lung): 16.2 µM | TGI (LOX IMVI melanoma): 1.07 µM | TGI (SF-268 CNS): 28.3 µM | TGI (MALME-3M melanoma): 34.2 µM | TGI (SK-MEL-2 melanoma): 79.5 µM | TGI (RXF-631 renal): 34 µM | TGI (A498 renal): 16.3 µM | TGI (SW-620 colon): 14.7 µM | TGI (NCI-H23 lung): 14.9 µM | TGI (SR leukemia): 44.2 µM | TGI (DMS 114 small cell lung): 33.5 µM | TGI (SNB-78 CNS): 32.4 µM | TGI (786-0 renal): 3.52 µM | TGI (SNB-75 CNS): 21.3 µM | TGI (NCI-H460 lung): 4.92 µM | TGI (SK-OV-3 ovarian): 24.8 µM | TGI (M14 melanoma): 18.5 µM | TGI (HOP-62 NSCLC): 18.9 µM | TGI (A549 NSCLC): 10.6 µM | TGI (HCT-116 colon): 6.22 µM | TGI (SN12C renal): 12.3 µM | TGI (OVCAR-8 ovarian): 3.79 µM | TGI (RPMI-8226 leukemia): 34.4 µM | TGI (OVCAR-5 ovarian): > 100 µM | TGI (KM20L2 colon): 93.6 µM | TGI (NCI-H226 lung): 15.1 µM | TGI (SF-539 CNS): 6.58 µM | TGI (SNB-19 CNS): 30.2 µM | TGI (HCT-15 colon): 45.7 µM | TGI (OVCAR-4 ovarian): 6.48 µM | TGI (LXFL 529 NSCLC): 5.09 µM | TGI (DLD-1 colon): 27.1 µM | TGI (SF-295 CNS): 5.91 µM | TGI (RXF 393 renal): 7.59 µM | TGI (HT29 colon): 14.6 µM | TGI (UO-31 renal): 41.6 µM | TGI (DMS 273 small cell lung): 3.74 µM | TGI (SK-MEL-5 melanoma): > 100 µM | TGI (UACC-257 melanoma): > 100 µM

CCOC(=O)C1C(c2ccccc2)=C(c2ccccc2)C(c2ccccc2)=C1c1ccccc1
TGI (HOP-18 NSCLC): 82.4 µM | TGI (XF 498 CNS): > 56.8 µM | TGI (COLO 205 colon): > 100 µM | TGI (U251 CNS): 55.7 µM | TGI (HOP-92 NSCLC): 50.7 µM | TGI (TK-10 renal): 57.4 µM | TGI (HL-60(TB) leukemia): > 100 µM | TGI (IGROV1 ovarian): > 70.2 µM | TGI (KM12 colon): > 100 µM | TGI (CAKI-1 renal): > 100 µM | TGI (OVCAR-3 ovarian): 68.7 µM | TGI (CCRF-CEM leukemia): > 100 µM | TGI (M19-MEL melanoma): > 100 µM | TGI (EKVX NSCLC): > 100 µM | TGI (K-562 leukemia): > 100 µM | TGI (UACC-62 melanoma): 60.9 µM | TGI (MOLT-4 leukemia): > 100 µM | TGI (NCI-H522 lung): 98.1 µM | TGI (LOX IMVI melanoma): > 100 µM | TGI (ACHN renal): > 82.2 µM | TGI (SF-268 CNS): > 100 µM | TGI (MALME-3M melanoma): > 91.7 µM | TGI (SK-MEL-2 melanoma): > 82.3 µM | TGI (RXF-631 renal): > 100 µM | TGI (A498 renal): 57.1 µM | TGI (SW-620 colon): > 100 µM | TGI (NCI-H23 lung): > 100 µM | TGI (SR leukemia): > 100 µM | TGI (SK-MEL-28 melanoma): > 100 µM | TGI (DMS 114 small cell lung): > 100 µM | TGI (SNB-78 CNS): > 91.6 µM | TGI (786-0 renal): 55.8 µM | TGI (SNB-75 CNS): 32.1 µM | TGI (NCI-H460 lung): > 100 µM | TGI (SK-OV-3 ovarian): 49 µM | TGI (M14 melanoma): > 100 µM | TGI (HOP-62 NSCLC): 33.3 µM | TGI (A549 NSCLC): 97.4 µM | TGI (HCT-116 colon): > 76.6 µM | TGI (SN12C renal): > 83.6 µM | TGI (HCC-2998 colon): > 100 µM | TGI (OVCAR-8 ovarian): > 72.7 µM | TGI (RPMI-8226 leukemia): > 100 µM | TGI (OVCAR-5 ovarian): > 100 µM | TGI (KM20L2 colon): > 100 µM | TGI (NCI-H226 lung): > 60.1 µM | TGI (SF-539 CNS): 91 µM | TGI (SNB-19 CNS): 40.3 µM | TGI (HCT-15 colon): > 100 µM | TGI (OVCAR-4 ovarian): > 100 µM | TGI (LXFL 529 NSCLC): > 100 µM | TGI (DLD-1 colon): > 100 µM | TGI (SF-295 CNS): 69.8 µM | TGI (RXF 393 renal): 40.4 µM | TGI (HT29 colon): > 100 µM | TGI (UO-31 renal): > 93.7 µM | TGI (DMS 273 small cell lung): > 100 µM | TGI (SK-MEL-5 melanoma): > 100 µM | TGI (UACC-257 melanoma): > 100 µM

From PubChem BioAssay (NCI)
